According to PubChem BioAssay (NCI):
“And” between values parts separate entries of the source, which are not always exact repeats. Equal values may be shown once.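 These data come from cells grown in 96-well plates and exposed to compound for 48 hours at five concentrations. GI50: concentration for 50% inhibition of growth. TGI is the concentration that stops growth completely.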

Assays:
Experiment in all cases: growth of human tumour cells (NCI), 48 h
786-0 renal = test system: 786-0 renal
M19-MEL melanoma = test system: M19-MEL melanoma
HCT-116 colon = test system: HCT-116 colon
DMS 114 small cell lung = test system: DMS 114 small cell lung
HL-60(TB) leukemia = test system: HL-60(TB) leukemia
KM20L2 colon = test system: KM20L2 colon
LXFL 529 NSCLC = test system: LXFL 529 NSCLC
HT29 colon = test system: HT29 colon
DU-145 prostate = test system: DU-145 prostate

In the case of `CC(=O)N/C(=C\c1ccc(Cc2nc3c([nH]2)C(=O)c2ccccc2C3=O)cc1)c1nc2c([nH]1)C(=O)c1ccccc1C2=O`, the TGI (786-0 renal) is reported as greater than 100 µM, the TGI (M19-MEL melanoma) is reported as greater than 100 µM and the TGI (HCT-116 colon) is reported as greater than 100 µM. The TGI (DMS 114 small cell lung) was greater than 100 µM, the TGI (HL-60(TB) leukemia) was greater than 100 µM and the TGI (KM20L2 colon) was greater than 100 µM. The TGI (LXFL 529 NSCLC) was greater than 100 µM and the TGI (HT29 colon) was greater than 100 µM.
`CCCCCCCCCCCCCC(=O)N(CCCCCCCCC)CC(O)C(O)C(OC1OC(CO)C(O)C(O)C1O)C(O)CO` (stereo not given) gave a TGI (786-0 renal) of 32 µM, a TGI (DU-145 prostate) of 30.6 µM and a TGI (HCT-116 colon) of 32.1 µM. It also gave a TGI (HL-60(TB) leukemia) of 48.7 µM and a TGI (HT29 colon) of 33.3 µM.
`CC(=O)/C(=C/N1CCNC1=S)C(=O)Nc1ccccc1C` showed a TGI (786-0 renal) greater than 100 µM, a TGI (DU-145 prostate) greater than 100 µM and a TGI (HCT-116 colon) greater than 100 µM. It also gave a TGI (HT29 colon) greater than 100 µM.
For `C=C(c1ccccc1)c1ccccc1-c1cc(-c2ccccc2)cc(-c2ccccc2)n1`, the TGI (786-0 renal) was greater than 100 µM, the TGI (DU-145 prostate) was greater than 100 µM and the TGI (HCT-116 colon) was greater than 100 µM. For the same molecule, the TGI (HL-60(TB) leukemia) was greater than 100 µM and the TGI (HT29 colon) was greater than 100 µM.
For `CN(Cc1cc(Cl)c(Cl)cc1NC(=O)CN)[C@H]1CCCC[C@@H]1N1CCCC1`, the TGI (786-0 renal) was 33 µM, the TGI (HCT-116 colon) was 45.2 µM and the TGI (HL-60(TB) leukemia) was greater than 100 µM. The TGI (HT29 colon) was 47.9 µM.
Molecule `O=c1[nH]c(=S)c2cc3c(=S)[nH]c(=O)n(CCO)c3nc2n1CCO` has a TGI (786-0 renal) greater than 100 µM and a TGI (HCT-116 colon) greater than 100 µM.
`O=C(O)CCC(NC(=O)c1ccc(Nc2nc3cc(C(F)(F)F)ccc3nc2C(=O)O)cc1)C(=O)O` (stereo not given) showed a TGI (786-0 renal) greater than 100 µM, a TGI (DU-145 prostate) greater than 100 µM and a TGI (HCT-116 colon) greater than 100 µM. For the same molecule, the TGI (HL-60(TB) leukemia) was greater than 100 µM and the TGI (HT29 colon) was greater than 100 µM.
`CN(C)CCCNCc1cccc2ccccc12` was tested, and the TGI (786-0 renal) was greater than 100 µM, the TGI (DU-145 prostate) was greater than 100 µM and the TGI (HCT-116 colon) was greater than 100 µM. The TGI (HL-60(TB) leukemia) was greater than 100 µM and the TGI (HT29 colon) was greater than 100 µM.
`O=[N+]([O-])c1cccc2nccc(NCCCO)c12` gave a TGI (786-0 renal) of 37 µM, a TGI (DU-145 prostate) of 35.3 µM and a TGI (HCT-116 colon) greater than 100 µM. It also gave a TGI (HL-60(TB) leukemia) of 36.8 µM and a TGI (HT29 colon) of 74.1 µM.
In the case of `C=C(C(=O)O[C@H]1C(=O)C2=C(C)CCC3C(=C)C(=O)O[C@@H]3C2[C@]1(C)O)C1CC[C@]2(C)CCCC(=C)[C@H]2C1` (stereo not given in full), the TGI (786-0 renal) is reported as 4.29 µM, the GI50 (DU-145 prostate) is reported as 5.37 µM and the TGI (DU-145 prostate) is reported as 11.3 µM and 10.3 µM. For the same molecule, the GI50 (HCT-116 colon) was 2.09 µM, the TGI (HCT-116 colon) was 9.96 µM and 8.4 µM and the TGI (HL-60(TB) leukemia) was 4.35 µM. For the same molecule, the GI50 (HT29 colon) was 1.59 µM and the TGI (HT29 colon) was 13.5 µM and 10.8 µM.
Molecule `NC(N)=NCCCC(NC(=O)OCCCCn1ccc(N)nc1=O)C(=O)O` (stereo not given) has a TGI (786-0 renal) greater than 100 µM, a TGI (DU-145 prostate) greater than 100 µM and a TGI (HCT-116 colon) greater than 100 µM. For the same molecule, the TGI (HL-60(TB) leukemia) was greater than 100 µM and the TGI (HT29 colon) was greater than 100 µM.
In the case of `CC1=NN(c2nc(N)nc(CF)n2)C(C)(C)C1`, the TGI (786-0 renal) is reported as greater than 100 µM, the TGI (DU-145 prostate) is reported as greater than 100 µM and the TGI (HCT-116 colon) is reported as greater than 100 µM. For the same molecule, the TGI (HL-60(TB) leukemia) was greater than 100 µM and the TGI (HT29 colon) was greater than 100 µM.
`COC(=O)C1=C(C(=O)OC)SC2(S1)C(C(=O)OC)=C(C(=O)OC)Sc1c2ssc1=NC(C)(C)C` gave a TGI (786-0 renal) of 2.62 µM, a TGI (DU-145 prostate) of 2.17 µM and a TGI (HCT-116 colon) of 2.03 µM. For the same molecule, the TGI (HL-60(TB) leukemia) was 4.73 µM and the TGI (HT29 colon) was 2.57 µM.
`[N-]=[N+]=C(C(=O)N1CCCC1=O)S(=O)(=O)c1ccccc1` was tested, and the TGI (786-0 renal) was greater than 100 µM, the TGI (DU-145 prostate) was greater than 100 µM and the TGI (HCT-116 colon) was greater than 100 µM. The TGI (HL-60(TB) leukemia) was greater than 100 µM.
In the case of `Cc1sc2nc3n(c(=O)c2c1C)N=CN(c1ccc(F)cc1)C3`, the TGI (786-0 renal) is reported as 38.3 µM, the TGI (DU-145 prostate) is reported as greater than 100 µM and the TGI (HCT-116 colon) is reported as 49 µM. For the same molecule, the TGI (HT29 colon) was greater than 100 µM.
`Cc1cc(S(=O)(=O)/N=C(/NN)NNc2cccc(C(F)(F)F)n2)c(S)cc1Cl` gave a TGI (786-0 renal) of 47.9 µM, a TGI (DU-145 prostate) of 34.1 µM and a TGI (HCT-116 colon) of 50.6 µM. It also gave a TGI (HL-60(TB) leukemia) of 71.6 µM and a TGI (HT29 colon) of 43.1 µM.
`CCN1CCC(O)(/C=C/c2ccc(OC)cc2)C(C(=O)/C=C/c2ccc(OC)cc2)C1` (stereo not given) gave a TGI (786-0 renal) of 12.4 µM, a TGI (DU-145 prostate) of 22.8 µM and a TGI (HCT-116 colon) of 14.7 µM. For the same molecule, the TGI (HL-60(TB) leukemia) was 52.2 µM and the TGI (HT29 colon) was 25.4 µM.
`COc1cc(Br)c(CC2C3=C(CCN2C(=O)C2CCC2)CC(=O)CC3)cc1O` (stereo not given) gave a TGI (786-0 renal) of 95.8 µM, a TGI (DU-145 prostate) greater than 100 µM and a TGI (HCT-116 colon) greater than 100 µM. It also gave a TGI (HL-60(TB) leukemia) of 36.9 µM and a TGI (HT29 colon) of 71.6 µM.
Molecule `COc1ccc(C(=O)/C=C/c2cc(O)c(O)cc2F)c(OC)c1` has a TGI (786-0 renal) of 22.9 µM, a TGI (DU-145 prostate) of 27.3 µM and a TGI (HCT-116 colon) of 20.4 µM. It also gave a TGI (HL-60(TB) leukemia) of 5.71 µM and a TGI (HT29 colon) of 26 µM.
`O=[N+]([O-])C(Cl)=C/C(=C(\Cl)SCc1ccccc1)[N+](=O)[O-]` showed a TGI (786-0 renal) of 71.2 µM, a TGI (DU-145 prostate) greater than 100 µM and a TGI (HCT-116 colon) of 44.1 µM. For the same molecule, the TGI (HL-60(TB) leukemia) was 23.8 µM and the TGI (HT29 colon) was 68.6 µM.
For `O=c1c2ccccc2nc(N/N=C/c2ccccc2O)n1-c1ccccc1`, the TGI (786-0 renal) was 2.86 µM, the TGI (DU-145 prostate) was greater than 100 µM and the TGI (HCT-116 colon) was 8.8 µM. The TGI (HL-60(TB) leukemia) was 8.07 µM and the TGI (HT29 colon) was greater than 100 µM.
With `Brc1ccc2c(-c3csc(-c4c[nH]c5ccccc45)n3)c[nH]c2c1` the TGI (786-0 renal) was 33.8 µM, the TGI (DU-145 prostate) was 32.9 µM and the TGI (HCT-116 colon) was 29.6 µM. For the same molecule, the TGI (HT29 colon) was 29 µM.
For `O=C(CSc1nc2ccccc2c(=O)n1-c1ccccc1)N=Nc1c(O)[nH]c2ccc(F)cc12`, the TGI (786-0 renal) was 5.05 µM, the TGI (DU-145 prostate) was 4.17 µM and the TGI (HCT-116 colon) was 4.46 µM. It also gave a TGI (HL-60(TB) leukemia) of 3.96 µM and a TGI (HT29 colon) of 6.96 µM.
`C=CCC(C(=O)Nc1cccc2[nH]cnc12)C(=O)OCC` (stereo not given) gave a TGI (786-0 renal) greater than 100 µM, a TGI (DU-145 prostate) greater than 100 µM and a TGI (HCT-116 colon) greater than 100 µM. The TGI (HL-60(TB) leukemia) was greater than 100 µM and the TGI (HT29 colon) was greater than 100 µM.
Molecule `CC(=O)c1c2n(n(-c3ccccc3)c1=O)C(=O)c1nccnc1-2` has a TGI (786-0 renal) greater than 100 µM, a TGI (DU-145 prostate) greater than 100 µM and a TGI (HCT-116 colon) greater than 100 µM. It also gave a TGI (HL-60(TB) leukemia) greater than 100 µM and a TGI (HT29 colon) greater than 100 µM.
`COC(=O)c1c(O)ccc2c1c1c(n2Cc2ccccc2)C(=O)c2ccccc2C1` gave a TGI (786-0 renal) greater than 100 µM, a TGI (DU-145 prostate) greater than 100 µM and a TGI (HCT-116 colon) greater than 100 µM. For the same molecule, the TGI (HL-60(TB) leukemia) was greater than 100 µM and the TGI (HT29 colon) was 37.4 µM.
Work on `C=CCn1c(-c2ccc([N+](=O)[O-])cc2)csc1=N` yielded a TGI (786-0 renal) greater than 100 µM, a TGI (DU-145 prostate) greater than 100 µM and a TGI (HCT-116 colon) greater than 100 µM. The TGI (HL-60(TB) leukemia) was 45.2 µM and the TGI (HT29 colon) was greater than 100 µM.
Molecule `CC(C)(C)[Si](C)(C)OCC1OC(n2cnc3c(=O)[nH]c(N)nc32)C(O[Si](C)(C)C(C)(C)C)C1O[Si](C)(C)C(C)(C)C` (stereo not given) has a TGI (786-0 renal) of 4.88 µM, a TGI (DU-145 prostate) of 12.2 µM and a TGI (HCT-116 colon) of 2.61 µM. The TGI (HL-60(TB) leukemia) was 2.34 µM and the TGI (HT29 colon) was 4.16 µM.
`C[N+](C)(CCNC(=O)c1cccc2cc3ccccc3nc12)Cc1ccc([N+](=O)[O-])s1` was tested, and the TGI (786-0 renal) was greater than 25 µM, the TGI (DU-145 prostate) was greater than 25 µM and the TGI (HCT-116 colon) was greater than 25 µM. It also gave a TGI (HL-60(TB) leukemia) greater than 25 µM and a TGI (HT29 colon) greater than 25 µM.
Work on `CCOC(=O)c1c(-c2cccc3ccccc23)c(C#N)c(=S)n(C2OC(COC(C)=O)C(OC(C)=O)C(OC(C)=O)C2OC(C)=O)c1C` (stereo not given) yielded a TGI (786-0 renal) greater than 100 µM, a TGI (DU-145 prostate) greater than 100 µM and a TGI (HCT-116 colon) greater than 100 µM. It also gave a TGI (HL-60(TB) leukemia) greater than 100 µM and a TGI (HT29 colon) greater than 100 µM.
`Cn1c(O)c(C=Nc2ccccc2Cl)c(=O)n(C)c1=O` gave a TGI (786-0 renal) of 37.7 µM, a TGI (HCT-116 colon) of 35.5 µM and a TGI (HT29 colon) greater than 100 µM.
`C=CC(C)(C)C(=C)C(=O)Nc1ccccc1I` gave a TGI (786-0 renal) greater than 100 µM, a TGI (DU-145 prostate) greater than 100 µM and a TGI (HCT-116 colon) greater than 100 µM. The TGI (HT29 colon) was greater than 100 µM.
`CNc1ncnc2c1cnn2Cc1cn(COCC(O)CO)nn1` (stereo not given) gave a TGI (786-0 renal) greater than 100 µM, a TGI (DU-145 prostate) greater than 100 µM and a TGI (HCT-116 colon) greater than 100 µM. For the same molecule, the TGI (HL-60(TB) leukemia) was greater than 100 µM and the TGI (HT29 colon) was greater than 100 µM.
